From a melting point compilation (Tetko et al.; mined from patent text by program, amines drawn as free bases though some values may be those of a salt) come the findings set out here.

`CCC(C(=O)C(C)C(O)C(C)CCCC(=O)c1c(NC(C)=O)cc(C)c(O)c1C(=O)O)C1OC(CC)(C2CCC(O)(CC)C(C)O2)CC1C` (stereo not given) registered a melting point of 190 to 192 °C.
The same measure for `Cc1cc(C)c(-n2ccc3c(OC(C)C)nn(C)c(=O)c32)c(C)c1`: 108 to 111 °C; for `CCCCCC(=O)Nc1ccc2c(c1)c(Cc1ccc(C(=O)O)cc1OC)cn2CC(=O)O`: 235 to 240 °C; for `Cc1cc(-c2nncc3c(-c4ccco4)c(OCc4ncnn4C)nn23)no1`: 226 to 228 °C.
The same measure for `FC(F)(F)c1ccc2c(c1)N=Cc1ccccc1O2`: 86 to 88 °C; for `CCOC(=O)C1=CC2(CCC1S(=O)(=O)Nc1ccc(F)cc1Cl)OCCO2` (stereo not given): 117 to 119 °C.
`Cc1oc(-c2ccccc2)nc1COc1ccc(CN(O)C(N)=O)cc1F` had a melting point of 143 to 144 °C.
The same measure for `CCOC(=O)c1cn(-c2cc(N)c(F)cc2F)c2cc(F)c(F)cc2c1=O`: 198 to 205 °C; for `O=C(NCCO)c1ccc(C(=O)NCCO)cc1`: 227 to 229 °C; for `CCCS(=O)(=O)NC(=N[N+](=O)[O-])NCc1cnc(Cl)s1`: 105 to 107 °C.
The figure for `N#Cc1cccc2c1CCc1ccsc1-2` is 74.5 to 75 °C; for `NC(=O)CCC(C(=O)O)N1C(=O)c2cccc(NCc3ccco3)c2C1=O` (stereo not given) it is 114 to 116 °C; for `COC(=O)C(Cc1ccc(Cl)cc1Cl)=NO` it is 97 to 100 °C.
The figure for `Fc1ccc(Nc2nc3ccccc3o2)c(F)c1` is 115 to 117 °C; for `O=C(O)c1ccc([C@H]2CC[C@H](C3CCC4(CC3)OCCO4)CC2)cc1F` it is 228 °C; for `CC(C)CC(C=O)NC(=O)C(Cc1c[nH]cn1)NC(=O)C(CC=Cc1ccccc1)Cc1cccc2ccccc12` (stereo not given) it is 92 to 96 °C.
Regarding `CC(C)(C)c1cccc(S(=O)(=O)n2c(Cc3ccc(C(=O)O)cc3)cc3ccc(C(F)(F)F)cc32)c1`, the melting point was 199 °C.
The same measure for `CN(C)C=Cc1cc(Cl)c([N+](=O)[O-])cc1Cl`: 173 to 175 °C.
The same measure for `O=C(NCCCN1CCN(c2ccccc2OCC(F)(F)F)CC1)c1csc2c(=O)cc(-c3ccccc3)oc12`: 152 to 158 °C.
The compound `O=C(N[C@H](Cc1ccc(C(F)(F)F)cc1)[C@@H](O)c1ccc(F)cc1)c1c2ccccc2cc2ccccc12` (racemic) displayed a melting point of 251 to 252 °C.
The figure for `Nc1cc(-n2cc(C(=O)O)c(=O)c3cc(F)c(NC4COC4)c(Cl)c32)c(F)cc1F` is 240 to 244 °C; for `COc1ccc2oc(N(C=O)[C@@H](Cc3ccccn3)c3ncc(-c4ccc([N+](=O)[O-])cc4)n3C)cc2c1` it is 210 to 211 °C; for `CCOC(=O)C(=O)c1oc(-n2cnc3ccccc32)nc1-c1ccc(Cl)cc1` it is 143 to 144 °C.
The figure for `CS(=O)(=O)Nc1ccc(C(O)C2CCN(CCc3ccccc3)CC2)cc1` (stereo not given) is 164 to 166 °C; for `O=C(c1ccc(F)cc1)c1nccc(O)c1O` it is 249 to 251 °C.
The same measure for `NS(=O)(=O)c1cc2cccnc2s1`: 223 to 225 °C.
Compound `CN(Cc1ccc(NC(=O)C2=Cc3cc(-c4ccc5c(c4)CCO5)ccc3S(=O)(=O)CC2)cc1)C1CCOCC1` had a melting point of 214 to 216 °C.
The figure for `COCCNC(=O)c1cccc(-c2cccc3cc(Cc4cc(F)cc(F)c4)sc23)c1` is 96 to 97 °C.
Regarding `C#CCn1c(=O)n(CCN2CCN(c3ccccc3OC)CC2)c(=O)c2cscc21`, the melting point lay within 142 to 143 °C.
The same measure for `O=C1CCCC(=O)C1C(=O)c1ccc(Cl)c(OCCn2cnnn2)c1Cl`: 46 to 54 °C.
The compound `CS(=O)(=O)c1ccc(CN2CC3(COc4cc5c(cc43)OCO5)c3ccccc32)o1` (stereo not given) came in with a melting point of 177 to 179 °C.
The figure for `CCOC(=O)c1cn(Cc2cccnc2)nc1OCc1cccnc1` is 120 to 121 °C.
`O=C1NCCN=C1c1ccc([N+](=O)[O-])cc1` showed a melting point of 191 to 192 °C.
The same measure for `OCCCN1CCN(C2=Nc3ccccc3Cn3c2cc2ccccc23)CC1`: 174 to 175 °C; for `N#Cc1ccc(-c2ccc(Cl)cc2)[nH]c1=O`: 330 to 339 °C; for `CS(=O)(=O)c1cc(C(=O)O)cc(NCc2ccco2)c1Cl`: 216 °C.
The same measure for `O=C(O)[C@@H]1CCCN1Cc1cc2cc3c(cc2c2cc(OCc4ccccc4)ccc12)OCO3`: 147 to 149 °C; for `CCCCCCC1=NOC(=O)/C1=C\Nc1ccc(CCCCCC)cc1`: 88 to 90 °C; for `Cn1c(COc2ccc(CC3SC(=O)NC3=O)cc2)nc2ccc(Oc3cccc(NC(=O)NCc4ccc(C(F)(F)F)cc4)c3)cc21` (stereo not given): 128 to 132 °C.
The figure for `O=c1[nH]c2c(n3ccnc13)C(NS(=O)(=O)c1ccccc1)c1ccccc1-2` (stereo not given) is 216 °C; for `NS(=O)(=O)Oc1ccc([N+](=O)[O-])c(C(F)(F)F)c1` it is 95 to 97 °C; for `O=C(c1ccc(-n2ccnc2)cc1)N1CCN(S(=O)(=O)c2cc3cc(Cl)ccc3o2)CC1` it is 175 to 177 °C.
Turning to `COC(=O)c1ccc2[nH]c(=O)oc(=O)c2c1`, the melting point fell in the range of 275 to 278 °C.
The figure for `O=C(NCCCO)c1ccnc2ccccc12` is 201 to 202 °C; for `C[C@H]1[C@H](c2ccccc2)OC(c2cccc(Br)c2)N1C` (stereo not given in full) it is 73 to 75 °C.
The same measure for `COc1ccc(COc2ccc(C(=O)C3=C(O)C(=O)N(c4ccc(C)nn4)C3c3ccc(OC(F)(F)F)cc3)cc2)cc1` (stereo not given): 206 to 209 °C; for `O=C1CC(O)c2ccccc21` (stereo not given): 182 to 187 °C.
In turn, `COCCOc1ccc(CN(C(=O)C2CCCc3c(O)cccc32)c2ccc(C(C)C)cc2)cn1` (stereo not given) gave a melting point of 153 °C.
The figure for `Nc1nc2[nH]c(CCCc3cc(C(=O)O)cs3)cc2c(=O)[nH]1` is 181 to 182 °C; for `CCCNc1c(CN)cnc2cn[nH]c12` it is 97 to 100 °C; for `COc1cc2c(cc1OC(C)C)OC(C)(C)C(Cl)=C2Cl` it is 80 to 85 °C.
The same measure for `COc1ccc(-c2cc(-c3ccccc3F)c(C#N)c(C)n2)cc1`: 152 to 153 °C.
The same measure for `COCNC(=O)c1snc(Cl)c1Cl`: 79 to 87 °C.
Compound `O=C1N(Nc2ccccc2)C(=S)OC12c1ccccc1-c1ccccc12` displayed a melting point of 187 to 189 °C.
The figure for `Cc1c(C)c2c(c(C)c1NC(=O)CC(C)(C)C)C(c1ccc(CCCO)cc1)CO2` (stereo not given) is 119 to 120 °C; for `CS(=O)(=O)Nc1cccc(Nc2nc(NCC3CCCCN3)c3nc[nH]c3n2)c1` (stereo not given) it is 147 to 150 °C.
The figure for `NS(=O)(=O)c1cc(CCNC(=O)/C=C/c2cccs2)ccc1-c1ccco1` is 165 to 166 °C.
`CCOC(=O)C1Cc2cc(OC)c(OC)cc2C(c2ccccc2)N1C(=O)CNC(=O)OC(C)(C)C` (stereo not given) had a melting point of 166 to 167 °C.
On to `COc1cc(NC(=O)OC(C)(C)C)c([N+](=O)[O-])cc1-c1ccc(F)cc1`, for which the melting point is 250 °C.
The figure for `Cc1nc(-c2cn(Cc3ccccc3)nn2)sc1C(=O)NCc1ccccc1` is 108 to 109 °C; for `CC(=O)SCC(C)C(=O)N(C1Cc2ccccc2C1)[C@@H](C)C(=O)O` (stereo not given in full) it is 140 to 142 °C; for `O=C(Nc1ccccc1)C1=C(N2CCOCC2)COC1=O` it is 205 to 206 °C.
The same measure for `COC(=O)CCCC#Cc1cc(Cl)ccc1NS(=O)(=O)c1ccc2c(c1)C(C)(C)CCC2(C)C`: 113 to 115 °C; for `CO/N=C1\CCCC[C@@H]1NC(=O)c1ncc(O[C@@H](C)C(F)(F)F)c(-c2ccc(Cl)cc2)n1`: 180 to 182 °C; for `CC(=O)N[C@@H](Cc1cn(Cc2ccccc2)cn1)C(=O)OCc1ccccc1`: 113 to 114 °C.
The figure for `COc1cc(OCCCN(C)Cc2ccc(OC)c(OC)c2)ccc1NC(=O)c1cccc2c(=O)c3cccc(C)c3[nH]c12` is 156 to 157 °C.
With `Cc1ccnc(C(=O)c2[nH]c3cc(Cl)ccc3c2NC(=O)[C@H](C)O)c1`, the melting point was in the range of 206 to 207 °C.
The figure for `CCC(=O)N1CCC(NC(=O)Nc2ccccc2)CC1` is 169 to 171 °C; for `O=C(Nc1ccccc1O)c1nnn[nH]1` it is 220 to 223 °C; for `CCCCCCCCCCCC(=O)OC1CC(c2ccccc2)N(O)C(c2ccccc2)C1` (stereo not given) it is 89 to 90 °C.
The same measure for `O=[N+]([O-])c1ccc(-n2cccn2)c(F)c1`: 128 to 129 °C; for `CC(C)Nc1cc(-c2nc[nH]n2)nc(Cl)c1-c1c(F)cccc1Cl`: 152 °C.
The figure for `CNS(=O)(=O)Oc1ccc2c(c1)C(C)(C)C(N1CCOCC1)O2` (stereo not given) is 129 to 131 °C; for `Cc1cnc(C(=O)NC(C)C)c(C(=O)O)c1` it is 95 to 105 °C; for `CC12CCC3C(CCC4C(=[N+]=[N-])C(=O)CCC43C)C1CCC2O` (stereo not given) it is 171 °C.
On to `COc1cc(C(=O)c2csc(-c3ccc(N)cc3)n2)cc(OC)c1OC`, for which the melting point is 166 to 169 °C.
The same measure for `O=C1OC(=Cc2ccccc2)c2ccc(-c3ccccc3)cc21`: 187 °C; for `O=C(c1ccc([N+](=O)[O-])c([N+](=O)[O-])c1)N1CCOCC1`: 136 to 137 °C.
The same measure for `NCc1c(Nc2ccccc2)cccc1-c1ccccc1`: 115 to 116 °C.
The figure for `CN(N=C(Cl)c1c(F)cccc1F)S(=O)(=O)c1ccccc1` is 81.5 to 83 °C.
Regarding `CN1CC[C@@H](c2c(O)cc(O)c3c(=O)cc(-c4cccc(F)c4Cl)oc23)[C@@H]1CO`, the melting point was 221 to 223 °C.
The figure for `O=C(O)c1ccc(-c2nn(-c3ccccc3C(=O)O)c3ccc([N+](=O)[O-])cc23)cc1` is 348 to 350 °C; for `OCc1cn2c(n1)CN=C(c1ccccn1)c1cc(I)ccc1-2` it is 206 to 207 °C.
The figure for `CN(C)C(=O)c1ccccc1Sc1c[nH]c2ccccc12` is 194 to 196 °C.
The same measure for `CC(C)CC(NC(=O)C(Cc1c[nH]cn1)NC(=O)C(Cc1cccc2ccccc12)Cc1cccc2ccccc12)C(O)C(=O)OC(C)C` (stereo not given): 93 to 98 °C.

As a reminder, the melting point is the temperature, or range, at which the solid turns liquid.
